Assay results reported in patent US6664273B2, “Piperidine based MCH antagonists for treatment of obesity and CNS disorders” (Schering Corporation, priority 2001, dated 2003).

Target: T1, MCH receptor (Homo sapiens, UniProt Q99705)
T1 construct: expressed in transfected cells; host or cells: CHO cells
Assay: MCH Receptor Binding Assay
Conditions: [125I]-MCH, SPA, membranes from CHO cells expressing the MCH receptor
Method: Membranes from CHO cells expressing the MCH receptor were prepared by lysing cells with 5 mM HEPES for 15 min at 4C. Cell lysates were centrifuged ([…], 15 min) and the pellet was re-suspended in 5 mM HEPES. For each 96-well plate (Microlite, Dynex Technologies), 1 mg of cell membranes were incubated with 10 mg of wheat germ agglutinin SPA beads (Amersham) for 5 min at 4 C in a volume of 10 ml of binding buffer (25 mM HEPES, 10 mM MGCl2, 10 mM NaCl, 5 mM MnCl2, 0.1% BSA). The membrane/bead mixture was centrifuged (1500×g, 3.5 min), the supernatant was aspirated, and the pellet was re-suspended in 10 ml binding buffer. The centrifugation, aspiration and re-suspension were then repeated. The membrane/bead mixture (100 μl) was then added to 96-well plates containing 50 μl of 500 pM [^125I]-MCH (NEN) and […] of the appropriate concentration of compound (4× the desired final concentration). Nonspecific binding was determined by including 1 μM MCH in the binding reaction. The binding reaction was incubated at room temperature for 2 h. Plates were then analyzed in a TOPCOUNT microplate scintillation counter (Packard). Data was analyzed and Ki values were determined using GraphPad Prism.

T1 sequence (Q99705 whole entry): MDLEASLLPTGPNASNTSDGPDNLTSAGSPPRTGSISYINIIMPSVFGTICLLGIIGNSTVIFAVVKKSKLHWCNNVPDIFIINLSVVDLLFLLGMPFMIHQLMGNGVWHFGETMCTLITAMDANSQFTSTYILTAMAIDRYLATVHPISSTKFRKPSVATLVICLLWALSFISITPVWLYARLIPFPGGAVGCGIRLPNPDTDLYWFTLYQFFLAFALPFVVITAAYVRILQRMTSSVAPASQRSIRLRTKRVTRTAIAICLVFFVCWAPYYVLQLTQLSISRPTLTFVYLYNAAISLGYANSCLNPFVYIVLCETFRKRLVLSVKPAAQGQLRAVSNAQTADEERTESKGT

Row | Structure (SMILES) | Ki [nM]
1 | N#Cc1cccc(-c2ccc(C3(OCC(=O)Nc4cc(Cl)cc(Cl)c4)CCN(C4CCC(c5ccccc5)CC4)CC3)cc2)c1 (stereo not shown) | 95
2 | CN(CC(=O)Nc1ccc(F)c(Cl)c1)C1(c2ccc(-c3cccc(C#N)c3)cc2)CCN(S(C)(=O)=O)CC1 | 70
3 | N#Cc1cccc(-c2ccc(C3(NCC(=O)Nc4ccc(F)c(C(F)(F)F)c4)CCN(C4CCCC4)CC3)cc2)c1 | 16
4 | N#Cc1cccc(-c2ccc(C3(CCC(=O)Nc4cc(F)cc(F)c4)CCN(C4CCCC4)CC3)cc2)c1 | 36
5 | N#Cc1cccc(-c2ccc(C3(OCC(=O)Nc4cc(Cl)cc(Cl)c4)CCN(C4CCSC4)CC3)cc2)c1 (stereo not shown) | 19
6 | CC(CN1CCC(OCC(=O)Nc2cc(Cl)cc(Cl)c2)(c2ccc(-c3cccc(C#N)c3)cc2)CC1)c1ccccc1 (stereo not shown) | 42
7 | CN(CC(=O)Nc1ccc(Cl)c(C(F)(F)F)c1)C1(c2ccc(-c3cccc(C#N)c3)cc2)CCN(C2CCCC2)CC1 | 16
8 | COc1ccc(CN2CCC(OCC(=O)Nc3cc(Cl)cc(Cl)c3)(c3ccc(-c4cccc(C#N)c4)cc3)CC2)cc1 | 39
9 | N#Cc1cccc(-c2ccc(C3(OCC(=O)Nc4cc(Cl)cc(Cl)c4)CCN(C4Cc5ccccc5C4)CC3)cc2)c1 | 62
10 | CN(CC(=O)Nc1ccc(F)c(Cl)c1)C1(c2ccc(-c3cccc(C#N)c3)cc2)CCN(C2CCCC2)CC1 | 4.2
11 | N#Cc1cccc(-c2ccc(C3(OCC(=O)Nc4cc(Cl)cc(Cl)c4)CCNCC3)cc2)c1 | 3.2
12 | N#Cc1cccc(-c2ccc(C3(NCC(=O)Nc4ccc(F)c(Cl)c4)CCNCC3)cc2)c1 | 3
13 | CCC(C)CN1CCC(OCC(=O)Nc2cc(Cl)cc(Cl)c2)(c2ccc(-c3cccc(C#N)c3)cc2)CC1 (stereo not shown) | 21
14 | N#Cc1cccc(-c2ccc(C3(CCC(=O)Nc4ccc(F)c(Cl)c4)CCN(CC4CC4)CC3)cc2)c1 | 34
15 | N#Cc1cccc(-c2ccc(C3(N(CC(=O)Nc4cc(F)cc(F)c4)CC4CC4)CCN(C4CCCC4)CC3)cc2)c1 | 69
16 | N#Cc1cccc(-c2ccc(C3(OCC(=O)Nc4cc(Cl)cc(Cl)c4)CCN(CCCc4ccccc4)CC3)cc2)c1 | 50
17 | CC(C)(C)OC(=O)N1CCC(NCC(=O)Nc2ccc(F)c(Cl)c2)(c2ccc(-c3cccc(C#N)c3)cc2)CC1 | 56
18 | O=C(CNC1(c2ccc(-c3cccc(-c4ncc[nH]4)c3)cc2)CCN(C2CCCC2)CC1)Nc1ccc(F)c(Cl)c1 | 8.3
19 | N#Cc1cccc(-c2ccc(C3(OCC(=O)Nc4ccc(F)c(Cl)c4)CCN(CC4CC4)CC3)cc2)c1 | 2
20 | CC(C)CCN1CCC(OCC(=O)Nc2cc(Cl)cc(Cl)c2)(c2ccc(-c3cccc(C#N)c3)cc2)CC1 | 30
21 | N#Cc1cccc(-c2ccc(C3(CCC(=O)Nc4ccc(F)c(F)c4)CCN(C4CCC4)CC3)cc2)c1 | 19
22 | N#Cc1cccc(-c2ccc(C3(NCC(=O)Nc4ccc(Cl)c(C(F)(F)F)c4)CCN(C4CCCC4)CC3)cc2)c1 | 23
23 | N#Cc1cccc(-c2ccc(C3(CCC(=O)Nc4cc(Cl)cc(Cl)c4)CCN(C4CCCC4)CC3)cc2)c1 | 35.5
24 | N#Cc1cccc(-c2ccc(C3(OCC(=O)Nc4cc(Cl)cc(Cl)c4)CCN(C4C5CCCC4CCC5)CC3)cc2)c1 (stereo not shown) | 48
25 | N#Cc1cccc(-c2ccc(C3(OCC(=O)Nc4cc(Cl)cc(Cl)c4)CCN(Cc4cccc(O)c4)CC3)cc2)c1 | 19

Row | Structure (SMILES) | Ki [nM]
26 | CC(=O)C1CCC(N2CCC(OCC(=O)Nc3cc(Cl)cc(Cl)c3)(c3ccc(-c4cccc(C#N)c4)cc3)CC2)CC1 (stereo not shown) | 6
27 | CCN(CC)C(=O)N1CCC(CCC(=O)Nc2ccc(F)c(F)c2)(c2ccc(-c3cccc(C#N)c3)cc2)CC1 | 45
28 | N#Cc1cccc(-c2ccc(C3(CCC(=O)Nc4cccc(OC(F)(F)F)c4)CCN(CC4CC4)CC3)cc2)c1 | 69
29 | N#Cc1cccc(-c2ccc(C3(OCC(=O)Nc4ccc(Cl)c(C(F)(F)F)c4)CCN(CC4CC4)CC3)cc2)c1 | 23
30 | N#Cc1cccc(-c2ccc(C3(NCC(=O)Nc4cc(Cl)cc(Cl)c4)CCN(C4CCCC4)CC3)cc2)c1 | 3.2
31 | CC(C)C1CCC(N2CCC(OCC(=O)Nc3cc(Cl)cc(Cl)c3)(c3ccc(-c4cccc(C#N)c4)cc3)CC2)CC1 (stereo not shown) | 19
32 | CC(CCN1CCC(OCC(=O)Nc2cc(Cl)cc(Cl)c2)(c2ccc(-c3cccc(C#N)c3)cc2)CC1)c1ccccc1 (stereo not shown) | 72
33 | N#Cc1cccc(-c2ccc(C3(OCC(=O)Nc4cc(Cl)cc(Cl)c4)CCN(Cc4cccs4)CC3)cc2)c1 | 26
34 | N#Cc1cccc(-c2ccc(C3(OCC(=O)Nc4ccc(Cl)c(C(F)(F)F)c4)CCN(CCO)CC3)cc2)c1 | 48
35 | N#Cc1cccc(-c2ccc(C3(OCC(=O)Nc4cc(Cl)cc(Cl)c4)CCN(C4CCC5CCCCC5C4)CC3)cc2)c1 (stereo not shown) | 36
36 | CC(=O)N1CCC(CCC(=O)Nc2ccc(F)c(F)c2)(c2ccc(-c3cccc(C#N)c3)cc2)CC1 | 61
37 | N#Cc1cccc(-c2ccc(C3(OCC(=O)Nc4cc(Cl)cc(Cl)c4)CCN(C4CCCC4)CC3)cc2)c1 | 2.2
38 | O=C(CNC1(c2ccc(-c3cccc(Cl)c3)cc2)CCN(C2CCCC2)CC1)Nc1ccc(F)c(Cl)c1 | 63
39 | N#Cc1cccc(-c2ccc(C3(OCC(=O)Nc4cc(Cl)cc(Cl)c4)CCN(Cc4ccc(O)cc4)CC3)cc2)c1 | 20
40 | N#Cc1cccc(-c2ccc(C3(OCC(=O)Nc4cc(Cl)cc(Cl)c4)CCN(C4CCC(C(F)(F)F)CC4)CC3)cc2)c1 (stereo not shown) | 49
41 | CN(CC(=O)Nc1ccc(F)c(Cl)c1)C1(c2ccc(-c3cccc(C#N)c3)cc2)CCNCC1 | 4.7
42 | N#Cc1cccc(-c2ccc(C3(CCC(=O)Nc4ccc(F)c(F)c4)CCNCC3)cc2)c1 | 25
43 | COC1CCCC(CN2CCC(OCC(=O)Nc3cc(Cl)cc(Cl)c3)(c3ccc(-c4cccc(C#N)c4)cc3)CC2)O1 (stereo not shown) | 20
44 | N#Cc1cccc(-c2ccc(C3(OCC(=O)Nc4cc(Cl)cc(Cl)c4)CCN(C4CCCC(C(F)(F)F)C4)CC3)cc2)c1 (stereo not shown) | 86
45 | N#Cc1cccc(-c2ccc(C3(CCC(=O)Nc4cc(Cl)cc(Cl)c4)CCN(CC4CC4)CC3)cc2)c1 | 27
46 | CN(CC(=O)Nc1ccc(F)c(C(F)(F)F)c1)C1(c2ccc(-c3cccc(C#N)c3)cc2)CCN(C2CCCC2)CC1 | 18
47 | N#Cc1cccc(-c2ccc(C3(OCC(=O)Nc4cc(Cl)cc(Cl)c4)CCN(Cc4ccsc4)CC3)cc2)c1 | 27
48 | COc1ccccc1CN1CCC(OCC(=O)Nc2cc(Cl)cc(Cl)c2)(c2ccc(-c3cccc(C#N)c3)cc2)CC1 | 15
49 | N#Cc1cccc(-c2ccc(C3(CCC(=O)Nc4ccc(F)c(F)c4)CCN(C4CCCC4)CC3)cc2)c1 | 15
50 | N#Cc1cccc(-c2ccc(C3(OCC(=O)Nc4ccc(Cl)c(C(F)(F)F)c4)CCN(C4CCCC4)CC3)cc2)c1 | 49

Row | Structure (SMILES) | Ki [nM]
51 | CC(=O)N1CCC(c2ccc(-c3cccc(C#N)c3)cc2)(N(C)CC(=O)Nc2ccc(F)c(Cl)c2)CC1 | 25
52 | N#Cc1cccc(-c2ccc(C3(NCC(=O)Nc4ccc(F)c(Cl)c4)CCN(C4CCCC4)CC3)cc2)c1 | 2.6
53 | N#Cc1cccc(-c2ccc(C3(CCC(=O)Nc4ccc(F)c(Cl)c4)CCN(C4CCCC4)CC3)cc2)c1 | 26
54 | O=C(CNC1(c2ccc(-c3cccc(OC(F)(F)F)c3)cc2)CCN(C2CCCC2)CC1)Nc1ccc(F)c(Cl)c1 | 76
55 | N#Cc1cccc(-c2ccc(C3(NCC(=O)Nc4cc(F)cc(F)c4)CCN(C4CCCC4)CC3)cc2)c1 | 2.5
56 | CC(C)(C)OC(=O)N1CCC(CCC(=O)Nc2ccc(F)c(F)c2)(c2ccc(-c3cccc(C#N)c3)cc2)CC1 | 51
57 | N#Cc1cccc(-c2ccc(C3(CCC(=O)Nc4cc(F)cc(F)c4)CCN(CC4CC4)CC3)cc2)c1 | 31
58 | CN(CC(=O)Nc1cc(Cl)cc(Cl)c1)C1(c2ccc(-c3cccc(C#N)c3)cc2)CCN(C2CCCC2)CC1 | 8.6
59 | CN(CC(=O)Nc1ccc(F)c(Cl)c1)C1(c2ccc(-c3cccc(C#N)c3)cc2)CCN(CCO)CC1 | 10
60 | CCN(CC(=O)Nc1ccc(F)c(Cl)c1)C1(c2ccc(-c3cccc(C#N)c3)cc2)CCN(C2CCCC2)CC1 | 10.6
61 | N#Cc1cccc(-c2ccc(C3(OCC(=O)Nc4cc(Cl)cc(Cl)c4)CCN(CC4CC4)CC3)cc2)c1 | 1.8
62 | CN(CC(=O)Nc1cc(F)cc(F)c1)C1(c2ccc(-c3cccc(C#N)c3)cc2)CCN(C2CCCC2)CC1 | 6.2
63 | N#Cc1cccc(-c2ccc(C3(OCC(=O)Nc4ccc(F)c(Cl)c4)CCN(CCO)CC3)cc2)c1 | 8.2
64 | N#Cc1cccc(-c2ccc(C3(OCC(=O)Nc4cc(Cl)cc(Cl)c4)CCN(C4CCCCC4)CC3)cc2)c1 | 19
65 | N#Cc1cccc(-c2ccc(C3(CCC(=O)Nc4ccc(Cl)c(C(F)(F)F)c4)CCN(CC4CC4)CC3)cc2)c1 | 80
66 | CN1CCC(OCC(=O)Nc2cc(Cl)cc(Cl)c2)(c2ccc(-c3cccc(C#N)c3)cc2)CC1 | 4
67 | COc1cccc(-c2ccc(C3(NCC(=O)Nc4ccc(F)c(Cl)c4)CCN(C4CCCC4)CC3)cc2)c1 | 77
68 | CC1CCC(C)CC(N2CCC(OCC(=O)Nc3cc(Cl)cc(Cl)c3)(c3ccc(-c4cccc(C#N)c4)cc3)CC2)C1 (stereo not shown) | 20
69 | O=C(CNC1(c2ccc(-c3cc(Cl)ccc3Cl)cc2)CCN(C2CCCC2)CC1)Nc1ccc(F)c(Cl)c1 | 52
70 | O=C(CNC1(c2ccc(-c3cccc(F)c3)cc2)CCN(C2CCCC2)CC1)Nc1ccc(F)c(Cl)c1 | 99
71 | N#Cc1cccc(-c2ccc(C3(OCC(=O)Nc4cc(Cl)cc(Cl)c4)CCN(C4CCOCC4)CC3)cc2)c1 | 9
72 | CS(=O)(=O)c1ccc(CN2CCC(OCC(=O)Nc3cc(Cl)cc(Cl)c3)(c3ccc(-c4cccc(C#N)c4)cc3)CC2)cc1 | 76
73 | N#Cc1cccc(-c2ccc(C3(CCC(=O)Nc4ccc(F)c(F)c4)CCN(CC4CC4)CC3)cc2)c1 | 8
